For 15 compounds, T/C results are on record in PubChem BioAssay AID266 (DTP/NCI, 2004).

“And” between values parts separate entries of the source, which are not always exact repeats. Identical values can stand only once. Inconclusive results are not listed.

The experiment deals with Nude mice, LX-1 lung xenograft intrarenal, tumor weight T/C. The experiment is described as follows: NCI In Vivo Anticancer Drug Screen. Data for tumor model Human Lung LX-1 Xenograft (intrarenal inoculation) in NU/NU BALB/C (nude) mice. The settings on record: endpoint: mean tumor weight change, higher = larger tumour. On the procedure:
The antitumor activity of compounds was measured in mice bearing transplantable tumors. Survival or tumor size were measured and the results are expressed as the measurement made in the treated group (T) divided by the measurement made in the vehicle treated control group (C). The tumor model used in this assay is Human Lung LX-1 Xenograft (intrarenal inoculation) in NU/NU BALB/C (nude) mice

Where [1] appears, read: dose: 100.0 mg/kg/injection, schedule: Q04DX003 (sc), vehicle: saline.
The mark [2] stands for this setting: dose: 100.0 mg/kg/injection, schedule: Q01DX010 (sc), vehicle: saline with Tween-80.
The mark [3] stands for this setting: dose: 200.0 mg/kg/injection, schedule: Q01DX010 (sc), vehicle: saline with Tween-80.
Setting [4] is: dose: 300.0 mg/kg/injection, schedule: Q04DX003 (sc), vehicle: water.

Consider `O=NN(CCCl)C(=O)NC1CCC(=O)NC1=O` (stereo unspecified), for which the T/C (dose: 1.56 mg/kg/injection, schedule: Q01DX010 (sc), vehicle: saline with Tween-80) was 25 % of control; the T/C (dose: 3.13 mg/kg/injection, schedule: Q01DX010 (sc), vehicle: saline with Tween-80) is 12 % of control; the T/C (dose: 5.2 mg/kg/injection, schedule: Q04DX003 (sc), vehicle: saline with Tween-80) was 58 % of control; the T/C (dose: 6.25 mg/kg/injection, schedule: Q01DX010 (sc), vehicle: saline with Tween-80) was 1 % of control; the T/C (dose: 10.4 mg/kg/injection, schedule: Q04DX003 (sc), vehicle: saline with Tween-80) is 3 % of control; the T/C (dose: 12.5 mg/kg/injection, schedule: Q01DX010 (sc), vehicle: saline with Tween-80) is -100 % of control. For the same compound, the T/C (dose: 20.8 mg/kg/injection, schedule: Q04DX003 (sc), vehicle: saline with Tween-80) is -47 % of control.

Consider `N=[N+]=CC(=O)CCC(NC(=O)C(CCC(=O)C=[N+]=N)NC(=O)CCC(N)C(=O)O)C(=O)O` (stereo unspecified), for which the T/C is, setting by setting: (dose: 0.2 mg/kg/injection, schedule: Q02DX005 (sc), vehicle: water) 114 % of control; (dose: 0.4 mg/kg/injection, schedule: Q02DX005 (sc), vehicle: water) 73 % of control; (dose: 0.8 mg/kg/injection, schedule: Q02DX005 (sc), vehicle: water) 26 % of control; (dose: 1.6 mg/kg/injection, schedule: Q02DX005 (sc), vehicle: water) 74 % of control; (dose: 3.2 mg/kg/injection, schedule: Q02DX005 (sc), vehicle: water) 65 % of control; (dose: 6.4 mg/kg/injection, schedule: Q02DX005 (sc), vehicle: water) 41 % of control.

Consider `COc1cccc2c1C(=O)c1c(O)c3c(c(O)c1C2=O)C[C@@](O)(/C(C)=N\O)C[C@@H]3OC1CC(N)C(O)C(C)O1` (stereo partly specified), for which the T/C (dose: 25.0 mg/kg/injection, schedule: Q04DX003 (sc), vehicle: saline) is 87 % of control; the T/C (dose: 50.0 mg/kg/injection, schedule: Q04DX003 (sc), vehicle: saline) was 65 % of control and 76 % of control; the T/C under setting [1] was 17 % of control and 18 % of control.

Take `Nc1ncn(C2OC(CO)C(O)C2O)c(=O)n1` (stereo unspecified): the T/C runs as follows: (dose: 5.0 mg/kg/injection, schedule: Q04DX003 (sc), vehicle: saline) 47 % of control; (dose: 10.0 mg/kg/injection, schedule: Q04DX003 (sc), vehicle: saline) 39 % of control; under setting [1], 34 % of control; (dose: 200.0 mg/kg/injection, schedule: Q04DX003 (sc), vehicle: saline) 18 % of control and 28 % of control; (dose: 400.0 mg/kg/injection, schedule: Q04DX003 (sc), vehicle: saline) 15 % of control and 32 % of control; (dose: 1600.0 mg/kg/injection, schedule: Q04DX003 (sc), vehicle: saline) -72 % of control.

Regarding `NC(=O)CCC(N)C(=O)O` (stereo unspecified), the T/C was 88 % of control (dose: 75.0 mg/kg/injection, schedule: Q04DX003 (ip), vehicle: suspension in saline); 77 % of control (dose: 150.0 mg/kg/injection, schedule: Q04DX003 (ip), vehicle: suspension in saline); 93 % of control (dose: 300.0 mg/kg/injection, schedule: Q04DX003 (ip), vehicle: suspension in saline); 100 % of control (dose: 600.0 mg/kg/injection, schedule: Q04DX003 (ip), vehicle: suspension in saline); 87 % of control (dose: 1200.0 mg/kg/injection, schedule: Q04DX003 (ip), vehicle: suspension in saline).

Turning to `Cc1ccc(S(=O)(=O)NC(=S)S)cc1`, the T/C reads like this: under setting [2], 203 % of control; under setting [3], 111 % of control; (dose: 400.0 mg/kg/injection, schedule: Q01DX010 (sc), vehicle: saline with Tween-80) 196 % of control.

Consider `Nc1ccn(C2OC(CO)C(O)C2O)c(=O)n1` (stereo unspecified), for which the T/C is, setting by setting: (dose: 15.63 mg/kg/injection, schedule: Q01DX010 (sc), vehicle: water) 56 % of control; (dose: 31.25 mg/kg/injection, schedule: Q01DX010 (sc), vehicle: water) 91 % of control; (dose: 62.5 mg/kg/injection, schedule: Q01DX010 (sc), vehicle: water) 55 % of control; (dose: 125.0 mg/kg/injection, schedule: Q01DX010 (sc), vehicle: water) 2 % of control; (dose: 500.0 mg/kg/injection, schedule: Q04DX003 (sc), vehicle: saline) 87 % of control; (dose: 1000.0 mg/kg/injection, schedule: Q04DX003 (sc), vehicle: saline) 61 % of control.

For the compound `O=NN(CCCl)C(=O)NCCO`, the T/C is, setting by setting: (dose: 3.13 mg/kg/injection, schedule: Q04DX003 (sc), vehicle: water) 113 % of control; (dose: 6.25 mg/kg/injection, schedule: Q04DX003 (sc), vehicle: water) 26 % of control; (dose: 12.5 mg/kg/injection, schedule: Q04DX003 (sc), vehicle: water) -25 % of control.

For the compound `OC1OC2COC(c3ccccc3)OC2C(O)C1O` (stereo unspecified), the T/C by setting is: under setting [4], 101 % of control; (dose: 600.0 mg/kg/injection, schedule: Q04DX003 (sc), vehicle: water) 117 % of control; (dose: 1200.0 mg/kg/injection, schedule: Q04DX003 (sc), vehicle: water) 105 % of control; (dose: 2400.0 mg/kg/injection, schedule: Q04DX003 (sc), vehicle: water) 90 % of control.

As to `NC1=NCN(C2OC(CO)C(O)C2O)C(=O)N1` (stereo unspecified), the T/C is, setting by setting: (dose: 25.0 mg/kg/injection, schedule: Q01DX010 (sc), vehicle: saline) 86 % of control; (dose: 50.0 mg/kg/injection, schedule: Q01DX010 (sc), vehicle: saline) 180 % of control; (dose: 100.0 mg/kg/injection, schedule: Q01DX010 (sc), vehicle: saline) 112 % of control; (dose: 166.66 mg/kg/injection, schedule: Q04DX003 (sc), vehicle: saline) 158 % of control; (dose: 200.0 mg/kg/injection, schedule: Q01DX010 (sc), vehicle: saline) 84 % of control; (dose: 333.32 mg/kg/injection, schedule: Q04DX003 (sc), vehicle: saline) 55 % of control. In addition, for the setting “dose: 666.65 mg/kg/injection, schedule: Q04DX003 (sc), vehicle: saline”, the T/C was 88 % of control.

`CC[C@]1(O)C[C@H]2CN(CCc3c([nH]c4ccccc34)[C@@](C(=O)OC)(c3cc4c(cc3OC)N(C=O)[C@H]3[C@@](O)(C(=O)OC)[C@H](OC(C)=O)[C@]5(CC)C=CCN6CC[C@]43[C@@H]65)C2)C1`: the T/C by setting is: (dose: 0.13 mg/kg/injection, schedule: Q01DX010 (sc), vehicle: saline) 69 % of control; (dose: 0.25 mg/kg/injection, schedule: Q01DX010 (sc), vehicle: saline) 20 % of control; (dose: 0.5 mg/kg/injection, schedule: Q01DX010 (sc), vehicle: saline) 1 % of control.

Take `COc1ccc(S(=O)(=O)N/N=C/C(=O)O)cc1`: the T/C was 210 % of control (dose: 50.0 mg/kg/injection, schedule: Q01DX010 (sc), vehicle: saline with Tween-80); 119 % of control under setting [2]; 72 % of control under setting [3].

Turning to `N=C(N)c1ccc(/C=C/c2ccc(C(=N)N)cc2O)cc1`, the T/C (dose: 37.5 mg/kg/injection, schedule: Q04DX003 (sc), vehicle: water) was 86 % of control; the T/C (dose: 75.0 mg/kg/injection, schedule: Q04DX003 (sc), vehicle: water) was 56 % of control; the T/C (dose: 150.0 mg/kg/injection, schedule: Q04DX003 (sc), vehicle: water) was 101 % of control; the T/C under setting [4] was 43 % of control.

As to `CCOC(=O)c1cn(C)c2c1C(O)=C(C(=O)OC)CC(=O)N2`, the T/C runs as follows: (dose: 300.0 mg/kg/injection, schedule: Q04DX003 (sc), vehicle: saline with Tween-80) 99 % of control; (dose: 600.0 mg/kg/injection, schedule: Q04DX003 (sc), vehicle: saline with Tween-80) 55 % of control; (dose: 1200.0 mg/kg/injection, schedule: Q04DX003 (sc), vehicle: saline with Tween-80) 111 % of control; (dose: 2400.0 mg/kg/injection, schedule: Q04DX003 (sc), vehicle: saline with Tween-80) 154 % of control.

Take `O=S(CCCl)CCCl`: the T/C is 81 % of control (dose: 25.0 mg/kg/injection, schedule: Q04DX003 (sc), vehicle: Klucel (hydroxypropylcellulose) (HPC)) and 76 % of control (dose: 50.0 mg/kg/injection, schedule: Q04DX003 (sc), vehicle: Klucel (hydroxypropylcellulose) (HPC)).
